In BindingDB's records for patent US12570607 (CSPC Zhongqi Pharmaceutical Technology (Shijiazhuang) Co., 2026):

Legend:
Test in all cases: Inhibitory Effect Assay
[1] = molecular target: Cyclin-dependent kinase 7 (Homo sapiens, UniProt P50613)
Procedure: (§1) A compound dissolved in DMSO (50 nL) was transferred to the kinase reaction plate by using acoustic technology (Echo). 5 μL of a CDK kinase dilution solution was added to the kinase reaction plate and incubated at room temperature for 10 minutes after centrifugation. 5 μL of a substrate premix solution was added to the plate, and the final concentrations of the substrate and the ATP in each well were shown in Table 1. After centrifugation, the reaction was performed at 30° C. for 120 minutes.

[2] = molecular target: Cyclin-dependent kinase 6 (Homo sapiens, UniProt Q00534)
Chain of Cyclin-dependent kinase 6 (Q00534 whole entry): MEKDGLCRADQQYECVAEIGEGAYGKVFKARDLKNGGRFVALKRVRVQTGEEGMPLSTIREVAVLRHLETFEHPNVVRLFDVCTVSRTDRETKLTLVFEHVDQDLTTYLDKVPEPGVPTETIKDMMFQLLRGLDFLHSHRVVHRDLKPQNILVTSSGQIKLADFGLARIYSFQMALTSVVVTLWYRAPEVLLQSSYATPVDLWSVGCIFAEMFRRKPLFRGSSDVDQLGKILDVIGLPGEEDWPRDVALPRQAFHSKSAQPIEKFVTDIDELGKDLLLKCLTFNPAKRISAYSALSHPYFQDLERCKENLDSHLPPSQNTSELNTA
Procedure: as §1

[3] = molecular target: Cyclin-dependent kinase 1 (Homo sapiens, UniProt P06493)
Chain of Cyclin-dependent kinase 1 (P06493 whole entry): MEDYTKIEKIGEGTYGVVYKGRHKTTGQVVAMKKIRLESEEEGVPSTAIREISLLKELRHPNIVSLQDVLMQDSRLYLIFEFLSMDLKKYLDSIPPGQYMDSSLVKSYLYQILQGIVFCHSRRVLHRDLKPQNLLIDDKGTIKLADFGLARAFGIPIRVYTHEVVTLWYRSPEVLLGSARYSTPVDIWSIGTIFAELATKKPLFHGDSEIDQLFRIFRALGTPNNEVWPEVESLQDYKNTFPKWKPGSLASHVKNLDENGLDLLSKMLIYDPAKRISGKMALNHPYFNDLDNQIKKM
Procedure: as §1

[4] = molecular target: Cyclin-dependent kinase 2 (Homo sapiens, UniProt P24941)
Procedure: as §1

[5] = molecular target: Cyclin-dependent kinase 4 (Homo sapiens, UniProt P11802)
Chain of Cyclin-dependent kinase 4 (P11802 whole entry): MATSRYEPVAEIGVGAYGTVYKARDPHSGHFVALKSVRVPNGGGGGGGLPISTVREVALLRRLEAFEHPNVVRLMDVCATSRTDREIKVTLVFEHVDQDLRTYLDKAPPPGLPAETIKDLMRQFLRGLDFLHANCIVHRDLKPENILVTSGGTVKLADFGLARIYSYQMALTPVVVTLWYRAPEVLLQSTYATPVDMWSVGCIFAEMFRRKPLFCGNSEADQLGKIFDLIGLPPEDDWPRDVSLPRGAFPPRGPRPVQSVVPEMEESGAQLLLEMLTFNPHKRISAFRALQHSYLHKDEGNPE
Procedure: as §1

[6] = molecular target: Cyclin-dependent kinase 5 (Homo sapiens, UniProt Q00535)
Chain of Cyclin-dependent kinase 5 (Q00535 whole entry): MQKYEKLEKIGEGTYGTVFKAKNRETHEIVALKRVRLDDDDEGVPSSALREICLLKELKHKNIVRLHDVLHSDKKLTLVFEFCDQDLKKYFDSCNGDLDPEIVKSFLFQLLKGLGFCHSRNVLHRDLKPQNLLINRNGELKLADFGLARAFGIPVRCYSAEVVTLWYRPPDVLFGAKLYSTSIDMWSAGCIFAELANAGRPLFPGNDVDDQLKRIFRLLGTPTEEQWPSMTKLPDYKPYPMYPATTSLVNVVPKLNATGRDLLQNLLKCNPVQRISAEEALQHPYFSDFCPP
Procedure: as §1

[7] = molecular target: Cyclin-dependent kinase 9 (Homo sapiens, UniProt P50750)
Chain of Cyclin-dependent kinase 9 (P50750 whole entry): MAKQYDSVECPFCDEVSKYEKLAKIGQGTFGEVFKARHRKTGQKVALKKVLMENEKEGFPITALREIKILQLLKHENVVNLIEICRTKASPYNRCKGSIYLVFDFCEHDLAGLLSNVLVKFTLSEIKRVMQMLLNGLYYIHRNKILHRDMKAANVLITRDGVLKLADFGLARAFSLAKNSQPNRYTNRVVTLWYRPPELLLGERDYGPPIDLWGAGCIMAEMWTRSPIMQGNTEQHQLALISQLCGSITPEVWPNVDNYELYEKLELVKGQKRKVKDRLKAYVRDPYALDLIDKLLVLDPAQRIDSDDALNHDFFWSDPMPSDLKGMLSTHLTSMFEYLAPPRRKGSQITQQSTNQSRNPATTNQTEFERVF
Procedure: as §1

Chain of Cyclin-dependent kinase 7 (P50613 whole entry): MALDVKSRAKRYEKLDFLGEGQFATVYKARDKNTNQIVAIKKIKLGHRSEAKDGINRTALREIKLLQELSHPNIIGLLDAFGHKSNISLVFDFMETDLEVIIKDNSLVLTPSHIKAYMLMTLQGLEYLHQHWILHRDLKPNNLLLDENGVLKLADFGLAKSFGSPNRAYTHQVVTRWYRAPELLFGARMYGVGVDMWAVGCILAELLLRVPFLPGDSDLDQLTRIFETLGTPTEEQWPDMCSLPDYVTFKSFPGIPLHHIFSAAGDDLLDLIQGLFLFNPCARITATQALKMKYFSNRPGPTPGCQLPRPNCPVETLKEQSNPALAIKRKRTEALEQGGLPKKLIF

| SMILES | IC50 [1] | IC50 [2] | IC50 [3] | IC50 [4] | IC50 [5] | IC50 [6] | IC50 [7] |
| --- | --- | --- | --- | --- | --- | --- | --- |
| COC(=O)N[C@@H]1CCC[C@H](C(=O)Nc2cc(-c3ccc(F)cc3OC)c(F)cn2)C1 [US12570607, Example 36] | 3.72 µM | 3.37 µM | 0.097 µM | 0.558 µM | 0.63 µM | 0.209 µM | 0.00688 µM |
| COc1cc(F)c(F)cc1-c1cc(NC(=O)[C@H]2CCC[C@@H](NC(=O)CO)C2)ncc1F [US12570607, Example 68] | 2.63 µM | 2.03 µM | 0.0736 µM | 0.274 µM | 0.402 µM | 0.162 µM | 0.00555 µM |
| CNC(=O)N[C@@H]1CCC[C@H](C(=O)Nc2cc(-c3ccc(F)cc3OC)c(F)cn2)C1 [US12570607, Example 37] | – | 2.64 µM | 0.082 µM | 0.688 µM | 0.361 µM | 0.248 µM | 0.00644 µM |
| COc1ccccc1-c1cc(NC(=O)[C@H]2CCC[C@@H](NC(C)=O)C2)ncc1F [US12570607, Example 17] | 5.48 µM | 3.17 µM | 0.193 µM | 1.44 µM | 0.474 µM | 0.357 µM | 0.00712 µM |
| COc1cc(F)ccc1-c1cc(NC(=O)[C@H]2CCC[C@@H](NC(=O)C(F)(F)F)C2)ncc1F [US12570607, Example 42] | – | 1.01 µM | 0.0726 µM | 0.253 µM | 0.184 µM | 0.14 µM | 0.00666 µM |
| COc1cc(F)ccc1-c1cc(NC(=O)[C@H]2CCC[C@@H](NC(=O)CO)C2)ncc1F [US12570607, Example 45] | 4.44 µM | 2.79 µM | 0.0932 µM | 0.564 µM | 0.785 µM | 0.284 µM | 0.00692 µM |
| COc1cc(F)ccc1-c1cc(NC(=O)[C@H]2CCC[C@@H](NC(=O)[C@H](C)O)C2)ncc1F [US12570607, Example 48] | 2.15 µM | 3.63 µM | 0.133 µM | – | 0.767 µM | 0.301 µM | 0.00684 µM |
| COc1cc(F)ccc1-c1cc(NC(=O)C2CCCC(NC(C)=O)C2)ncc1F (stereo unspecified) [US12570607, Example 3] | 6.21 µM | 1.39 µM | 0.262 µM | 2.12 µM | – | 0.721 µM | 0.0168 µM |
| CC(=O)N[C@@H]1CCC[C@H](C(=O)Nc2cc(-c3ccc(F)cc3OC(C)C)c(F)cn2)C1 [US12570607, Example 8] | > 9.9 µM | 1.77 µM | 0.214 µM | 0.991 µM | 0.273 µM | 0.614 µM | 0.00721 µM |
| COc1cc(F)ccc1-c1cc(NC(=O)[C@H]2CCC[C@@H](NC(=O)c3ccccn3)C2)ncc1F [US12570607, Example 43] | 2.41 µM | 3.08 µM | 0.08 µM | 0.823 µM | 0.582 µM | 0.296 µM | 0.00717 µM |
| COc1cc(F)ccc1-c1cc(NC(=O)[C@H]2CCC[C@@H](NC(=O)Nc3cc(C)no3)C2)ncc1F [US12570607, Example 41] | 1.08 µM | 4.98 µM | 0.196 µM | 1.25 µM | 0.629 µM | 0.361 µM | 0.00765 µM |
| CC(=O)N[C@@H]1CCC[C@H](C(=O)Nc2cc(-c3cccc4ccoc34)c(F)cn2)C1 [US12570607, Example 19] | 1.17 µM | 0.297 µM | 0.0871 µM | 0.638 µM | 0.196 µM | – | 0.00765 µM |
| COc1cc(F)ccc1-c1cc(NC(=O)[C@H]2CCC[C@@H](NS(C)(=O)=O)C2)ncc1F [US12570607, Example 25] | 4.36 µM | 2.36 µM | 0.265 µM | 2.05 µM | 0.811 µM | 0.716 µM | 0.00754 µM |
| COc1cc(F)ccc1-c1cc(NC(=O)[C@H]2CCC[C@@H](NC(C)=O)C2)ncc1F [US12570607, Example 5] | 2.75 µM | 1.12 µM | – | 0.475 µM | 0.429 µM | – | 0.0079 µM |
| COc1cc(F)ccc1-c1cc(NC(=O)[C@H]2CCC[C@@H](NC(=O)C3(C#N)CC3)C2)ncc1F [US12570607, Example 33] | 1.26 µM | 1.76 µM | 0.0788 µM | 0.761 µM | 0.395 µM | 0.168 µM | 0.00668 µM |
| COc1cc(F)ccc1-c1cc(NC(=O)[C@H]2CCC[C@@H](NC(=O)CC#N)C2)ncc1F [US12570607, Example 32] | 1.65 µM | 2.45 µM | 0.0867 µM | 1.07 µM | 0.353 µM | 0.329 µM | 0.00686 µM |
| COc1cc(F)c(F)cc1-c1cc(NC(=O)[C@H]2CCC[C@@H](NC(=O)C3(C#N)CC3)C2)ncc1F [US12570607, Example 67] | 1.42 µM | 0.6 µM | – | 0.392 µM | 0.268 µM | 0.0829 µM | 0.00545 µM |
